The text below walks through data of US20250186597A1, “TARGETED IMMUNE ACTIVATION WITH IL-18 IMMUNOCYTOKINES” (BRIGHT PEAK THERAPEUTICS AG, priority 2023, published 2025).

Assay [1] concerns parental PD-1 negative KG-1 cells. Briefly: IFN gamma secretion assay in parental PD-1 negative KG-1 cells (Example 11). Type of assay: cell-based, human. The conditions noted are these: IFNγ secretion. The method, then:
The KG-1 cell line was used to generate a PD-1 expressing cell line and furthermore, to measure IFNγ release upon incubation with IL-18 variants and corresponding IL-18 immunocytokines.
IFNγ release was assessed in PD-1 positive (transduced) KG-1 cells, as well as in the parental PD-1 negative cells. 0.5×10^5 cells were seeded into a 96-well U-bottom plate in culture media (RPMI, 10% FBS, 1% L-Glutamine) and stimulated with IL-18 variants/ICs for 20-24 h. The test items were diluted to 100 nM in culture medium, followed by 7 10-fold serial dilutions. The lowest concentration assessed was […]. After incubation, IFNγ release was measured using the LEGENDplex custom human mix and match KIT (Biolegend LEGENDplex™ Human IFN-γ Capture Bead B5, 13X #740942, LEGENDplex™ HU Essential Immune Response Panel Detection Abs, #740931, LEGENDplex™ Buffer Set A #740368). To this end, cell culture supernatant was collected and diluted 1:1 with Assay Buffer. Fluorescence measurements were done with a Quanteon Flow Cytometer from Acea Biosciences. For analysis, MFI values (median fluorescence intensity) were exported and plotted against concentrations used. The EC50 values (half maximal effective concentration) were calculated based on a variable slope and four parameter analysis using GraphPad PRISM software version 9.

Assay [2] has as its target T1, human IL-18 Binding Protein (IL-18BP) (Homo sapiens, UniProt O95998).
T1 sequence (O95998 31-194): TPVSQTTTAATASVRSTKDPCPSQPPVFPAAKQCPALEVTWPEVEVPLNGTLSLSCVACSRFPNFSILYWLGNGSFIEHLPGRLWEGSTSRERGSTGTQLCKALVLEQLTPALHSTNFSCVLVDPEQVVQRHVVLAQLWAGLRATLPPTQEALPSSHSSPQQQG
Briefly: IL-18 Binding Protein alphaLISA assay (Example 12). The conditions noted are these: human IL-18BP. The method, then:
Wild type or modified IL-18 polypeptides samples were diluted at 5.6 μM in a solution of 1× alphaLISA Immunoassay Buffer provided in the alphaLISA IFNγ Detection kit and were diluted applying 3-fold serial dilutions down to […] in 384 deep well plates. A solution of 10 ng/ml of human IL-18BP-His was prepared with 1×alphaLISA Immunoassay Buffer. IL-18/IL-18BP complex formation was performed incubating 30 μl of IL-18BP solution to IL-18 sample titrations for 1 h at 20° C. IL-18BP standard was prediluted from stock solution supplied in alphaLISA IFNγ Detection kit at 100 ng/ml with 1×alphaLISA Buffer and titration prepared from applying 2-fold serial dilutions. The following solutions were prepared: a 50 μg/ml solution of anti-IL-18BP alphaLISA Acceptor beads, a 5 nM solution of biotinylated anti-IL18BP antibody and a 80 μg/ml light-protected solution of Streptavidin Donor beads in 1×alphaLISA Immunoassay Buffer. […]
5 μl of Biotinylated anti-IL-18BP antibody were added, followed by a short centrifugation step at 150 g, and incubated for 60 minutes at 20° C. under shaking at 750 rpm. […] AlphaLisa signal was then measured on an Enspire plate reader (Perkin Elmer) using 680 and 615 nm as excitation and emission wavelengths respectively. […]
(In general: Bead proximity is the source of the signal in Alpha formats.)

In assay [3] the test system is parental PD-1negative NK-92 cells. Briefly: IFN gamma secretion assay in parental PD-1 negative NK-92 cells (Example 17). Type of assay: cell-based, human. The conditions noted are these: IFNγ secretion. The method, then:
(§1) To show selectivity of the anti-PD1-IL18 immunocytokine (IC) for PD-1 positive cells, the NK-92 cell line was used to generate a PD-1 expressing cell line and furthermore, to measure IFN[…] release upon incubation with IL-18 variants and ICs.
(§2) On the day of experiment, parental PD-1negative and PD-1positive transduced cells were harvested and washed with PBS 1× and resuspended in medium (w/o IL-2) containing 1 ng/ml of recombinant human Interleukin-12 (SinoBiologicals, Cat #CT011-H08H). After counting, cells were seeded at 100 000 cells/well in a 384 well culture plate and incubated at 37° C./5% CO2. When indicated, cells were preincubated with anti-PD-1 antibody LZM-009 at 17 uM during 30 min at 37° C. […] The lowest concentration assessed was 0.8 fM.
(§3) After 16-20 h incubation at 37° C./5% CO2, 5 μl of supernatant were carefully transferred to a 384 microwell OptiPlate (Perkin Elmer; Cat #6007270) and Interferon-gamma (IFNγ) levels were measured using the Human IFNγ AlphaLISA Assay Kit (Perkin Elmer, Cat #AL217C). […] AlphaLISA signal was then measured on an Enspire plate reader (Perkin Elmer) using 680 and 615 nm as excitation and emission wavelengths respectively. Half maximal effective concentration (EC50) was calculated based on a variable slope, four parameter analysis using GraphPad PRISM software.

Assay [4] deals with PD-1positive transduced NK-92 cells. Briefly: IFN gamma secretion assay in PD-1 positive transduced NK-92 cells (Example 17). Type of assay: cell-based, human. The method, then:
as §1, §2, §3

Turning to “SEQ ID NO: 1: Native sequence of human IL-18 (bioactive form) [reference compound]”, the EC50 came to 0.387 nM in assay [1], 0.158 nM in assay [3] and 0.13 nM in assay [4] (IFNγ secretion). The substance further had a Kd in assay [2] of 0.411 nM. The “PD-1^neg/PD-1^pos EC50 ratio” value in assay [4] (NK-92 cells) was 1.4.

Usually EC50 stands for the concentration that produces a half-maximal response. One may read the Kd as the equilibrium constant for the complex coming apart. Read a low Kd as a tighter complex.
